Patent US10704079B2, “Methods for the detection of beta-lactamases in a sample” (priority 2007, dated 2020)
In brackets after ≈: the same amount, converted by molar mass.

Legend:
Experiment in all cases: Imipenem MIC assay, microbroth dilution (CLSI)
Type in all cases: cell-based
[1] = tested on: Pseudomonas aeruginosa (PSEAER) strains; settings: PSEAER strain 6 of Table 16 (MBL)
Protocol: (§1) Imipenem MIC Assay were performed by microbroth dilution method according to the CLSI (Clinical and Laboratory Standards Institute) standard.

[2] = tested on: Klebsiella oxytoca strains
Protocol: (§2) Imipenem MIC Assay was performed by microbroth dilution method according to the CLSI (Clinical and Laboratory Standards Institute) standard.

E. coli strains = settings: Escherichia coli
Protocol: as §2

[3] = tested on: Klebsiella pneumoniae strains; settings: for MIC: Klebsiella pneumoniae
Protocol: as §2, §1

Q: With `C[C@@H](O)[C@H]1C(=O)N2C(C(=O)O)=C(SCCN=CN)C[C@H]12` [Imipenem] as the compound, how does the Imipenem MIC [1] read?
A: > 16 µg/mL

Q: And the Imipenem MIC ([2]; Klebsiella oxytoca strain 1 of Table 12 (K1-high))?
A: ≤ 2 µg/mL

Q: What about the Imipenem MIC ([2]; Klebsiella oxytoca strain 2 of Table 12 (OSBL, K1-high)) of the same compound?
A: ≤ 2 µg/mL

Q: What about the Imipenem MIC ([2]; Klebsiella oxytoca strain 3 of Table 12 (OSBL, K1-high, Carb)) of the same compound?
A: > 16 µg/mL

Q: And the Imipenem MIC ([2]; Klebsiella oxytoca strain 4 of Table 12 (WT))?
A: ≤ 2 µg/mL

Q: And the MIC (E. coli strains; E. coli strain 1 of Table 8 (C-chromo))?
A: ≤ 2 µg/mL

Q: And the MIC (E. coli strains; E. coli strain 3 of Table 8 (Carb (KPC)))?
A: 16 µg/mL (≈ 53.4 µM)

Q: What about the MIC (E. coli strains; E. coli strain 4 of Table 8 (ESBL, C-chromo)) of the same compound?
A: ≤ 2 µg/mL

Q: What about the MIC (E. coli strains; E. coli strain 5 of Table 8 (IRT, C-chromo)) of the same compound?
A: ≤ 2 µg/mL

Q: What about the MIC (E. coli strains; E. coli strain 6 of Table 8 (OSBL, Carb)) of the same compound?
A: 8 µg/mL (≈ 26.7 µM)

Q: And the MIC (E. coli strains; E. coli strain 8 of Table 8 (WT))?
A: ≤ 0.25 µg/mL

Q: What about the MIC (E. coli strains; E. coli strain 9 of Table 8 (WT)) of the same compound?
A: ≤ 2 µg/mL

Q: And the MIC (E. coli strains; E. coli strain 10 of Table 8 (OSBL, C-chromo))?
A: ≤ 2 µg/mL

Q: What about the MIC (E. coli strains; E. coli strain 11 of Table 8 (ESBL, C)) of the same compound?
A: ≤ 2 µg/mL

Q: What about the Imipenem MIC ([3]; KLEPENEP strain 5 of Table 16 (WT)) of the same compound?
A: ≤ 2 µg/mL

Q: And the “Imipenem MIC” value ([3]; KLEPNEP strain 1 of Table 14 (ESBL, MBL))?
A: = 4

Q: And the Imipenem MIC ([3]; KLEPNEP strain 1 of Table 16 (ESBL, MBL))?
A: 4 µg/mL

Q: And the Imipenem MIC ([3]; KLEPNEP strain 2 of Table 14 (WT))?
A: ≤ 2 µg/mL

Q: What about the Imipenem MIC ([3]; KLEPNEP strain 2 of Table 16 (MBL)) of the same compound?
A: > 16 µg/mL

Q: What about the Imipenem MIC ([3]; KLEPNEP strain 3 of Table 14 (OSBL, Carbapenemase)) of the same compound?
A: > 16 µg/mL

Q: What about the “Imipenem MIC” value ([3]; KLEPNEP strain 3 of Table 16 (ESBL, Carbapenemase)) of the same compound?
A: = 8

Q: What about the Imipenem MIC ([3]; KLEPNEP strain 4 of Table 14 (ESBL, C-plasmid)) of the same compound?
A: ≤ 2 µg/mL

Q: What about the Imipenem MIC ([3]; KLEPNEP strain 4 of Table 16 (ESBL, C-plasmid)) of the same compound?
A: ≤ 2 µg/mL

Q: And the “Imipenem MIC” value ([3]; Klebsiella pneumoniae strain 1 of Table 10 (C-plasmid))?
A: <=2 μg/ml

Q: What about the “Imipenem MIC” value ([3]; Klebsiella pneumoniae strain 6 of Table 10 (ESBL, C-plasmid)) of the same compound?
A: <=2 μg/ml

Q: And the “Imipenem MIC” value ([3]; Klebsiella pneumoniae strain 8 of Table 10 (OSBL, C-plasmid))?
A: <=2 μg/ml

Q: And the “Imipenem MIC” value ([3]; Klebsiella pneumoniae strain 11 of Table 10 (OSBL, C-plasmid))?
A: <=2 μg/ml

Q: What about the “Imipenem MIC” value ([3]; Klebsiella pneumoniae strain 14 of Table 10 (ESBL, C-plasmid)) of the same compound?
A: <=2 μg/ml

Q: What about the MIC ([3]; Klebsiella pneumoniae strain 2 of Table 10 (ESBL, MBL)) of the same compound?
A: 4 µg/mL (≈ 13.4 µM)

Q: And the MIC ([3]; Klebsiella pneumoniae strain 3 of Table 10 (ESBL, C))?
A: ≤ 2 µg/mL

Q: What about the MIC ([3]; Klebsiella pneumoniae strain 4 of Table 10 (ESBL, Carb (KPC))) of the same compound?
A: 8 µg/mL (≈ 26.7 µM)

Q: What about the MIC ([3]; Klebsiella pneumoniae strain 7 of Table 10 (WT)) of the same compound?
A: ≤ 2 µg/mL

Q: What about the MIC ([3]; Klebsiella pneumoniae strain 9 of Table 10 (OSBL, carb)) of the same compound?
A: > 16 µg/mL

Q: What about the MIC ([3]; Klebsiella pneumoniae strain 10 of Table 10 (WT)) of the same compound?
A: ≤ 2 µg/mL

Q: What about the MIC ([3]; Klebsiella pneumoniae strain 12 of Table 10 (MBL)) of the same compound?
A: > 16 µg/mL

Q: What about the MIC ([3]; Klebsiella pneumoniae strain 13 of Table 10 (ESBL, MBL)) of the same compound?
A: 4 µg/mL (≈ 13.4 µM)

Q: And the MIC ([3]; Klebsiella pneumoniae strain 15 of Table 10 (Carb(KPC)))?
A: 8 µg/mL (≈ 26.7 µM)

Q: And the MIC ([3]; Klebsiella pneumoniae strain 16 of Table 10 (ESBL, Carb(KPC)))?
A: 8 µg/mL (≈ 26.7 µM)
